Like-named read-outs stand apart in the source and are kept apart here.
Experiments:
[1] = test system: type 1 human immunodeficiency virus; assay: Antiviral activity on HIV-1 infected human cell model (cell staining, CPE, syncytium formation); conditions: for CPE/syncytia (+): number of pluses of the four-plus system; for Cell survival rate, % / Number of cells × 10^3/mL: HIV-1 infected cells
[2] = rat, in vivo
[3] = rat, in vivo; remark: listed apart in the source
[4] = rat, in vivo; remark: listed apart in the source
[5] = test system: human lymphoblastoid cells; assay: Cytotoxicity in human lymphoblastoid cells model
[6] = Acute toxicity in rats after a single intramuscular injection; format: in vivo, Wistar rats
[7] = Chronic toxicity in rats: autopsy and weight coefficients of viscera; conditions: any of the tested doses; after the end of administration
[8] = test system: Ehrlich ascites carcinoma; assay: Ehrlich ascites carcinoma in white mice, body weight dynamics
[9] = rat, in vivo; remark: listed apart in the source

N-fullerene tris(δ-aminocaproic acid) hydrate [Agent 1]
CPE/syncytia (+) ([1]; 0.5 mcg/mL): 4.0 +
CPE/syncytia (+) ([1]; 1.0 mcg/mL): 2.0 +
CPE/syncytia (+) ([1]; 5.0 mcg/mL): 0 +
CPE/syncytia (+) ([1]; 10 mcg/mL): 0 +
Cell survival rate, % ([1]; 0.5 mcg/mL): 27%
Number of cells × 10^3/mL ([1]; 0.5 mcg/mL): 133.2 10^3/mL
Cell survival rate, % ([1]; 1.0 mcg/mL): 75%
Number of cells × 10^3/mL ([1]; 1.0 mcg/mL): 320.4 10^3/mL
Cell survival rate, % ([1]; 5.0 mcg/mL): 92%
Number of cells × 10^3/mL ([1]; 5.0 mcg/mL): 480.0 10^3/mL
Cell survival rate, % ([1]; 10 mcg/mL): 95%
Number of cells × 10^3/mL ([1]; 10 mcg/mL): 579.3 10^3/mL
EC50 (50% effective concentration) ([1]; HIV-1 infected human cells): 5.0 µg/mL
induction of microscopic changes in organs [2]: the identified changes were not induced by the studied substance
Animals with changes, Number: Liver, Plethora of sinusoidal capillaries ([2]; 20 mg/kg): 5
Animals with changes, Number: Lung, Thickening of the interalveolar septa (total) ([2]; 20 mg/kg): 1
Glucose: number of animals with values going beyond the limits ([3]; 3 mg/kg): 0
Leukocytes: number of animals with values going beyond the limits ([3]; 3 mg/kg): 3
Protein: number of animals with values going beyond the limits ([3]; 9 mg/kg): 3
Bilirubin: number of animals with values going beyond the limits ([3]; 20 mg/kg): 0
Erythrocytes: number of animals with values going beyond the limits ([3]; 20 mg/kg): 5
Glucose: number of animals with values going beyond the limits ([3]; 20 mg/kg): 0
Nitrites: number of animals with values going beyond the limits ([3]; 20 mg/kg): 1
Alkali hosphatase, Units/L ([4]; 3 mg/kg): 143 ± 47 Units/L
Cholesterol ([4]; 3 mg/kg): 4.17 ± 0.68 mmol/L
Glucose ([4]; 3 mg/kg): 7.64 ± 1.56 mmol/L
Total proten ([4]; 3 mg/kg): 71.12 ± 6.66 g/L
Alkali hosphatase, Units/L ([4]; 9 mg/kg): 159 ± 28 Units/L
Glucose ([4]; 9 mg/kg): 7.18 ± 0.80 mmol/L
Total protein ([4]; 9 mg/kg): 68.94 ± 2.97 g/L
Total proten ([4]; 9 mg/kg): 78.48 ± 8.94 g/L
Alkali hosphatase, Units/L ([4]; 20 mg/kg): 248 ± 107 Units/L
Total proten ([4]; 20 mg/kg): 72.76 ± 8.11 g/L
Urea ([4]; 20 mg/kg): 9.22 ± 1.56 mmol/L
Cell survival rate, % ([5]; 0.5 mcg/mL): 95%
Number of cells × 10^3/mL ([5]; 0.5 mcg/mL): 633 10^3/mL
Cell survival rate, % ([5]; 1.0 mcg/mL): 94%
Number of cells × 10^3/mL ([5]; 1.0 mcg/mL): 599 10^3/mL
Cell survival rate, % ([5]; 5.0 mcg/mL): 96%
Number of cells × 10^3/mL ([5]; 5.0 mcg/mL): 530 10^3/mL
Cell survival rate, % ([5]; 10.0 mcg/mL): 92%
Number of cells × 10^3/mL ([5]; 10.0 mcg/mL): 500 10^3/mL
Cell survival rate, % ([5]; 100 mcg/mL): 70%
Number of cells × 10^3/mL ([5]; 100 mcg/mL): 433 10^3/mL
death during the 14-day observation period ([6]; 5, 50 and 500 mg/kg single i.m.): No death occurred
Animal body weight (M ± SD) ([6]; females, 5 mg/kg single intramuscular, day 0): 163 ± 15.5 g
Animal body weight (M ± SD) ([6]; females, 50 mg/kg single intramuscular, day 0): 165 ± 17.5 g
Animal body weight (M ± SD) ([6]; females, 500 mg/kg single intramuscular, day 0): 160 ± 8.1 g
Animal body weight (M ± SD) ([6]; females, 500 mg/kg single intramuscular, day 7): 169 ± 8.0 g
Animal body weight (M ± SD) ([6]; males, 5 mg/kg single intramuscular, day 7): 228 ± 18.1 g
Animal body weight (M ± SD) ([6]; males, 5 mg/kg single intramuscular, day 14): 276 ± 17.8 g
Animal body weight (M ± SD) ([6]; males, 50 mg/kg single intramuscular, day 7): 228 ± 17.0 g
Animal body weight (M ± SD) ([6]; males, 50 mg/kg single intramuscular, day 14): 279 ± 18.3 g
Animal body weight (M ± SD) ([6]; males, 500 mg/kg single intramuscular, day 14): 258 ± 24.1 g
LD50 ([6]; single intramuscular administration, exceeds the maximal tested dose): > 500 mg/kg
autopsy finding at the injection site (skeletal muscles) [7]: a brownish color of muscle tissue, fascia, and fat layers was noticed
Animal body weight, g (M ± SD) (females, 5 mg/kg single i.m., day 0): 19.1 ± 2. g
Animal body weight, g (M ± SD) (females, 5 mg/kg single i.m., day 7): 20.6 ± 2 g
Animal body weight, g (M ± SD) (females, 5 mg/kg single i.m., day 14): 22.8 ± 2. g
Animal body weight, g (M ± SD) (females, 50 mg/kg single i.m., day 0): 18.6 ± 1. g
Animal body weight, g (M ± SD) (females, 50 mg/kg single i.m., day 7): 19.9 g
Animal body weight, g (M ± SD) (females, 50 mg/kg single i.m., day 14): 21.9 ± 1. g
Animal body weight, g (M ± SD) (females, 500 mg/kg single i.m., day 0): 18.9 ± 1. g
Animal body weight, g (M ± SD) (females, 500 mg/kg single i.m., day 7): 20.7 ± 0 g
Animal body weight, g (M ± SD) (females, 500 mg/kg single i.m., day 14): 22.8 ± 1. g
Animal body weight, g (M ± SD) (males, 5 mg/kg single i.m., day 0): 23.0 ± 2.9 g
Animal body weight, g (M ± SD) (males, 5 mg/kg single i.m., day 7): 24.1 ± 2 g
Animal body weight, g (M ± SD) (males, 5 mg/kg single i.m., day 14): 25.4 ± 2. g
Animal body weight, g (M ± SD) (males, 50 mg/kg single i.m., day 0): 22.4 ± 2.1 g
Animal body weight, g (M ± SD) (males, 50 mg/kg single i.m., day 7): 23.7 ± 2 g
Animal body weight, g (M ± SD) (males, 50 mg/kg single i.m., day 14): 25.4 ± 2. g
Animal body weight, g (M ± SD) (males, 500 mg/kg single i.m., day 0): 22.6 ± 2.2 g
Animal body weight, g (M ± SD) (males, 500 mg/kg single i.m., day 7): 24.2 ± 1 g
Animal body weight, g (M ± SD) (males, 500 mg/kg single i.m., day 14): 26.2 ± 1. g
local irritant effect (mice and rats, after a single intramuscular injection): does not cause a local irritant effect
death during the 14-day observation period (mice, 5, 50 and 500 mg/kg single i.m.): No death occurred
LD50 (mice, single intramuscular administration, exceeds the maximal tested dose): > 500 mg/kg
Animal body weight ([8]; day 1 post tumor transplantation): 18.6 ± 2.3 g
Animal body weight ([8]; day 3 post tumor transplantation): 18.8 ± 2.2 g
Animal body weight ([8]; day 5 post tumor transplantation): 18.8 ± 1.9 g
Animal body weight ([8]; day 8 post tumor transplantation): 19.4 ± 1.7 g
Animal body weight ([8]; day 10 post tumor transplantation): 19.9 ± 1.7 g
Animal body weight ([8]; day 13 post tumor transplantation): 20.4 ± 1.5 g
Animal body weight ([8]; day 15 post tumor transplantation): 20.4 ± 1.4 g
Basophils, % ([9]; 3 mg/kg): 0%
Erythrocytes, Mln/mm ([9]; 3 mg/kg): 6.5 ± 1.2 Mln/mm
Young, % ([9]; 3 mg/kg): 0%
Basophils, % ([9]; 9 mg/kg): 0%
Erythrocytes, Mln/mm ([9]; 9 mg/kg): 6.4 ± 0.5 Mln/mm
Young, % ([9]; 9 mg/kg): 0%
Avg. erythr. volume., mcm ([9]; 20 mg/kg): 50.4 ± 1.5 mcm
Basophils, % ([9]; 20 mg/kg): 0%
Erythrocytes, Mln/mm ([9]; 20 mg/kg): 6.3 ± 0.8 Mln/mm
Hematocrit, % ([9]; 20 mg/kg): 31.2 ± 3.5%
Young, % ([9]; 20 mg/kg): 0%
